Experimental data published in patent US6908919B2, “Substituted polycyclic aryl and heteroaryl pyrazinones useful for selective inhibition of the coagulation cascade” (Pharmacia Corporation, priority 1999, dated 2005).
Read-outs that look alike come from different tables or passages of the source.

Assays:
[1] = molecular target: T1, recombinant soluble tissue factor and recombinant human factor VIIa (TF-VIIa) (Homo sapiens, UniProt P08709); assay: TF-VIIa Assay; format: biochemical
T1 construct: conversion of coagulation factor VII to VIIa by Xa; purchased American Diagnostica, Greenwich Conn; host or cells: VIIa purchased; soluble TF made in house in E. coli

Human factor Xa = Human factor Xa (Homo sapiens, UniProt P00742); assay: Xa Assay; format: biochemical; parameters: purchased Enzyme Research Laboratories, South Bend Ind
Human factor Xa, sequence (P00742 41-179 limits assumed): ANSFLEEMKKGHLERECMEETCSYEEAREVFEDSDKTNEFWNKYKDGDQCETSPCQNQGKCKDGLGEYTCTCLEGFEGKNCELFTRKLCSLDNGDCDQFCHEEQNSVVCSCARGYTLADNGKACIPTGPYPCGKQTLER
Human factor Xa, sequence (P00742 235-488 limits assumed): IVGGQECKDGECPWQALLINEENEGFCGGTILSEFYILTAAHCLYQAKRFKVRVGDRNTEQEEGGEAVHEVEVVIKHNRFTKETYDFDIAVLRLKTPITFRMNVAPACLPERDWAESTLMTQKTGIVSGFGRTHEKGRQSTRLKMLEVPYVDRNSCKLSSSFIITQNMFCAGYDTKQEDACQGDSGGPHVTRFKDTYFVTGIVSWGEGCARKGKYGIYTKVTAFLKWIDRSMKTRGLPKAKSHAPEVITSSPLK

T1 sequence (P08709 61-212 limits assumed): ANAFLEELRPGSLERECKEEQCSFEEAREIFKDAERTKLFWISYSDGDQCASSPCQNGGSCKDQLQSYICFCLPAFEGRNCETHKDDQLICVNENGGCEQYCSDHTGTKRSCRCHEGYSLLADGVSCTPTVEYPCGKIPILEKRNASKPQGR
T1 sequence (P08709 213-466 limits assumed): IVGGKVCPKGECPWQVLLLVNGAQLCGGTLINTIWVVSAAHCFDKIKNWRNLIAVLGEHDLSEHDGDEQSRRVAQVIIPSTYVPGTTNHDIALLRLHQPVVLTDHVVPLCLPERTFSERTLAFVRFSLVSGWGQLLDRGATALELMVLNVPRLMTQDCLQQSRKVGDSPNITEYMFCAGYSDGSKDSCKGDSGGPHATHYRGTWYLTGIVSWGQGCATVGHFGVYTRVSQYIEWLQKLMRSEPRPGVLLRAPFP
T1 sequence (P13726 33-251 partner limits assumed): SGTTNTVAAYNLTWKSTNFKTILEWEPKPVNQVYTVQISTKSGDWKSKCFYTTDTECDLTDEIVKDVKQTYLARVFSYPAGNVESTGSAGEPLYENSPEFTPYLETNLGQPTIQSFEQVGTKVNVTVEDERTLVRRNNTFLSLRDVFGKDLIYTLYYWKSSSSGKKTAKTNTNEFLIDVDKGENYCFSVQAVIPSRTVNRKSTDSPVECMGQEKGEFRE

SMILES | % Inhibition TF-VIIa (100 µM) ([1]; inhibitor at 100 µM) | % Inhibition Factor Xa (100 µM) (Human factor Xa; inhibitor at 100 µM) | % Inhibition TF-VIIa (100 µM) [1] | % Inhibition Factor Xa (100 µM) (Human factor Xa)
O=C(Cn1c(-c2ccc(Cl)cc2)c(Cl)nc(NCCc2cccc(Cl)c2)c1=O)NCCc1ccncc1 [Example E-0019] | 0% | 0% | – | –
O=C(Cn1c(-c2ccc(Cl)cc2)c(Cl)nc(NCCc2ccc(Cl)cc2)c1=O)NCCc1ccncc1 [Example E-0020] | 0% | 1% | – | –
O=C(Cn1c(-c2ccc(Cl)cc2)c(Cl)nc(NCCc2cccnc2)c1=O)NCCc1ccncc1 [Example E-0021] | 0% | 1% | – | –
O=C(Cn1c(-c2ccc(Cl)cc2)c(Cl)nc(NCCc2ccncc2)c1=O)NCCc1ccncc1 [Example E-0022] | 0% | 0% | – | –
O=C(Cn1c(-c2ccc(Cl)cc2)c(Cl)nc(NCCN2CCOCC2)c1=O)NCCc1ccncc1 [Example E-0023] | 0% | 0% | – | –
O=C(Cn1c(-c2ccc(Cl)cc2)c(Cl)nc(NCc2ccncc2)c1=O)NCCc1ccncc1 [Example E-0024] | 0% | 0% | – | –
O=C(Cn1c(-c2ccc(Cl)cc2)c(Cl)nc(NCc2ccccc2)c1=O)NCCc1ccncc1 [Example E-0025] | 0% | 0% | – | –
O=C(Cn1c(-c2ccc(Cl)cc2)c(Cl)nc(NCCc2ccccc2)c1=O)NCCc1ccncc1 [Example E-0026] | 0% | 0% | – | –
O=C(Cn1c(-c2ccc(Cl)cc2)c(Cl)nc(NCCc2ccc(Cl)cc2)c1=O)NCCc1ccncc1 [Example E-0028] | 0% | 0% | – | –
O=C(Cn1c(-c2ccc(Cl)cc2)c(Cl)nc(NCCc2cccnc2)c1=O)NCCc1ccncc1 [Example E-0029] | 0% | 0% | – | –
O=C(Cn1c(-c2ccc(Cl)cc2)c(Cl)nc(NCCc2ccncc2)c1=O)NCCc1ccncc1 [Example E-0030] | 0% | 0% | – | –
O=C(Cn1c(-c2ccc(Cl)cc2)c(Cl)nc(NCc2ccncc2)c1=O)NCCc1ccncc1 [Example E-0032] | 0% | 0% | – | –
COc1ccc(-c2c(Cl)nc(NCc3ccccc3)c(=O)n2CC(=O)NCCc2ccncc2)cc1 [Example E-0033] | 0% | 0% | – | –
COc1ccc(-c2c(Cl)nc(NCCc3ccccc3)c(=O)n2CC(=O)NCCc2ccncc2)cc1 [Example E-0034] | 0% | 6% | – | –
COc1ccc(-c2c(Cl)nc(NCCc3cccc(Cl)c3)c(=O)n2CC(=O)NCCc2ccncc2)cc1 [Example E-0035] | 4% | 0% | – | –
COc1ccc(-c2c(Cl)nc(NCCc3ccc(Cl)cc3)c(=O)n2CC(=O)NCCc2ccncc2)cc1 [Example E-0036] | 0% | 0% | – | –
COc1ccc(-c2c(Cl)nc(NCCc3cccnc3)c(=O)n2CC(=O)NCCc2ccncc2)cc1 [Example E-0037] | 0% | 0% | – | –
COc1ccc(-c2c(Cl)nc(NCCc3ccncc3)c(=O)n2CC(=O)NCCc2ccncc2)cc1 [Example E-0038] | 0% | 0% | – | –
COc1ccc(-c2c(Cl)nc(NCCN3CCOCC3)c(=O)n2CC(=O)NCCc2ccncc2)cc1 [Example E-0039] | 0% | 1% | – | –
COc1ccc(-c2c(Cl)nc(NCc3ccncc3)c(=O)n2CC(=O)NCCc2ccncc2)cc1 [Example E-0040] | 0% | 0% | – | –
O=C(Cn1c(-c2ccc3c(c2)OCO3)c(Cl)nc(NCc2ccccc2)c1=O)NCCc1ccncc1 [Example E-0041] | 0% | 0% | – | –
O=C(Cn1c(-c2ccc3c(c2)OCO3)c(Cl)nc(NCCc2ccccc2)c1=O)NCCc1ccncc1 [Example E-0042] | 0% | 0% | – | –
O=C(Cn1c(-c2ccc3c(c2)OCO3)c(Cl)nc(NCCc2cccc(Cl)c2)c1=O)NCCc1ccncc1 [Example E-0043] | 0% | 0% | – | –
O=C(Cn1c(-c2ccc(-c3ccccc3)cc2)c(Cl)nc(NCc2ccccc2)c1=O)NCCc1ccncc1 [Example E-0049] | – | – | 2% | 0%
O=C(Cn1c(-c2ccc(-c3ccccc3)cc2)c(Cl)nc(NCCc2ccccc2)c1=O)NCCc1ccncc1 [Example E-0050] | – | – | 0% | 0%
O=C(Cn1c(-c2ccc(-c3ccccc3)cc2)c(Cl)nc(NCCc2ccc(Cl)cc2)c1=O)NCCc1ccncc1 [Example E-0052] | – | – | 0% | 0%
O=C(Cn1c(-c2ccc(-c3ccccc3)cc2)c(Cl)nc(NCCc2cccnc2)c1=O)NCCc1ccncc1 [Example E-0053] | – | – | 0% | 0%
O=C(Cn1c(-c2ccc(-c3ccccc3)cc2)c(Cl)nc(NCCN2CCOCC2)c1=O)NCCc1ccncc1 [Example E-0055] | – | – | 0% | 0%
O=C(Cn1c(-c2ccc(-c3ccccc3)cc2)c(Cl)nc(NCc2ccncc2)c1=O)NCCc1ccncc1 [Example E-0056] | – | – | 0% | 0%

Continued, in another order:

% Inhibition TF-VIIa (100 µM) ([1]; inhibitor at 100 µM) | % Inhibition Factor Xa (100 µM) (Human factor Xa; inhibitor at 100 µM) | SMILES | % Inhibition TF-VIIa (100 µM) [1] | % Inhibition Factor Xa (100 µM) (Human factor Xa)
0% | 0% | O=C(Cn1c(-c2ccc3c(c2)OCO3)c(Cl)nc(NCCc2ccc(Cl)cc2)c1=O)NCCc1ccncc1 [Example E-0044] | – | –
0% | 0% | O=C(Cn1c(-c2ccc3c(c2)OCO3)c(Cl)nc(NCCc2cccnc2)c1=O)NCCc1ccncc1 [Example E-0045] | – | –
0% | 0% | O=C(Cn1c(-c2ccc3c(c2)OCO3)c(Cl)nc(NCCc2ccncc2)c1=O)NCCc1ccncc1 [Example E-0046] | – | –
0% | 0% | O=C(Cn1c(-c2ccc3c(c2)OCO3)c(Cl)nc(NCCN2CCOCC2)c1=O)NCCc1ccncc1 [Example E-0047] | – | –
0% | 0% | O=C(Cn1c(-c2ccc3c(c2)OCO3)c(Cl)nc(NCc2ccncc2)c1=O)NCCc1ccncc1 [Example E-0048] | – | –
0% | 6% | O=C(Cn1c(Cc2ccccc2)c(Cl)nc(NCc2ccccc2)c1=O)NCCc1ccncc1 [Example E-0057] | – | –
0% | 0% | O=C(Cn1c(Cc2ccccc2)c(Cl)nc(NCCc2ccccc2)c1=O)NCCc1ccncc1 [Example E-0058] | – | –
0% | 0% | O=C(Cn1c(Cc2ccccc2)c(Cl)nc(NCCc2cccc(Cl)c2)c1=O)NCCc1ccncc1 [Example E-0059] | – | –
0% | 0% | O=C(Cn1c(Cc2ccccc2)c(Cl)nc(NCCc2ccc(Cl)cc2)c1=O)NCCc1ccncc1 [Example E-0060] | – | –
0% | 0% | O=C(Cn1c(Cc2ccccc2)c(Cl)nc(NCCc2cccnc2)c1=O)NCCc1ccncc1 [Example E-0061] | – | –
0% | 0% | O=C(Cn1c(Cc2ccccc2)c(Cl)nc(NCCc2ccncc2)c1=O)NCCc1ccncc1 [Example E-0062] | – | –
0% | 0% | O=C(Cn1c(Cc2ccccc2)c(Cl)nc(NCCN2CCOCC2)c1=O)NCCc1ccncc1 [Example E-0063] | – | –
0% | 0% | O=C(Cn1c(Cc2ccccc2)c(Cl)nc(NCc2ccncc2)c1=O)NCCc1ccncc1 [Example E-0064] | – | –
0% | 0% | O=C(Cn1c(CCc2ccccc2)c(Cl)nc(NCc2ccccc2)c1=O)NCCc1ccncc1 [Example E-0065] | – | –
0% | 0% | O=C(Cn1c(CCc2ccccc2)c(Cl)nc(NCCc2ccccc2)c1=O)NCCc1ccncc1 [Example E-0066] | – | –
0% | 0% | O=C(Cn1c(CCc2ccccc2)c(Cl)nc(NCCc2cccc(Cl)c2)c1=O)NCCc1ccncc1 [Example E-0067] | – | –
0% | 0% | O=C(Cn1c(CCc2ccccc2)c(Cl)nc(NCCc2ccc(Cl)cc2)c1=O)NCCc1ccncc1 [Example E-0068] | – | –
0% | 0% | O=C(Cn1c(CCc2ccccc2)c(Cl)nc(NCCc2cccnc2)c1=O)NCCc1ccncc1 [Example E-0069] | – | –
0% | 0% | O=C(Cn1c(CCc2ccccc2)c(Cl)nc(NCCc2ccncc2)c1=O)NCCc1ccncc1 [Example E-0070] | – | –
0% | 0% | O=C(Cn1c(CCc2ccccc2)c(Cl)nc(NCCN2CCOCC2)c1=O)NCCc1ccncc1 [Example E-0071] | – | –
0% | 0% | O=C(Cn1c(CCc2ccccc2)c(Cl)nc(NCc2ccncc2)c1=O)NCCc1ccncc1 [Example E-0072] | – | –
0% | 2% | O=C(Cn1c(-c2cccc(Cl)c2)c(Cl)nc(NCc2ccccc2)c1=O)NCCc1ccncc1 [Example E-0073] | – | –
0% | 0% | O=C(Cn1c(-c2cccc(Cl)c2)c(Cl)nc(NCc2ccccc2)c1=O)NCCc1cccnc1 [Example E-0074] | – | –
